Literature values, collected in patent publication US12582389B2, “Urine preservative composition, device for sampling urine and method for manufacturing a urine sampling device” (VACUTEST KIMA S.R.L., priority 2020, dated 2026).

Assays:
[1] = urine samples with boric acid
Klebsiella sp. = details: boric acid 1.5-2% W/V with respect to the sample volume

pH of urine samples [1]: ~5
SMILES: OB(O)O [boric acid]
effect on the most sensitive Gram-negative bacterial strains (Klebsiella sp.): death
